Data reported in US6417167B1, “Lyophilized compositions containing shingoglycolipid and process for preparing them” (Kirin Beer Kabushiki Kaisha, priority 1997, dated 2002).

How the values were obtained:
Assay type in all cases: physicochemical
[1] = Excipient appropriate to lyophilization 1: re-solubility immediately after lyophilization; settings: KRN7000 200 μg/ml, Polysorbate 20 0.5%
Description: A variety of monosaccharides and disaccharides were used for examination of excipients of the lyophilized preparation. In this context, the active component (KRN7000) was set at the concentration of 200 μg/ml, and Polysorbate 20 which is used only in a limited amount from the viewpoint of safety was set at the concentration of 0.5% in the following examination.
(§1) First, Polysorbate 20 was dissolved in distilled water in a concentration of 0.5%, and the saccharides were dissolved in such concentrations as listed in Table 6. Next, 20 mg of the active component (KRN7000) was weighed and stirred in 100 ml of the solvents in a heated bath to 80° C. for 20 minutes in order to form a solution. After cooling with running water, the mixture was filtered through a 0.22 μm filter, and transparent colorless glass vials having a volume of 5 ml were charged with a 1 ml portion of each of a variety of solutions thus obtained and subjected to lyophilization. Lyophilization was carried out under the condition of preliminary freezing at −40° C. for 2 hours and drying at −20° C. for 24 hours, 10° C. for 12 hours, and finally at 25° C. for 5 hours to give the lyophilized product. The degree of vacuum was set at 0.1 Torr or less during drying step.
(§2) After the lyophilization step, the lyophilized composition was reconstituted in 1 ml of distilled water for injection, left standing for 30 minutes, and solubility was judged when the foams generated on reconstitution disappeared.
(§3) The solubility was judged by cleaning the outside of the vial and placing it beneath the white light source in a darkroom for observation with naked eye at the position of a luminous intensity of about 5,000 lux. When the sample was clear with no precipitates, it was judged that the active component was dissolved.

[2] = Lyophilized preparations with Polysorbate 20 alone: re-solubility immediately after lyophilization; settings: KRN7000 200 μg/ml, reconstituted in 1 ml distilled water for injection
Description: as §1, with “Next,” for “First, Polysorbate 20 was dissolved in distilled water in a concentration of 0.5%, and the saccharides were dissolved in such concentrations as listed in Table 6. Next,”, “Polysorbate solutions having a variety of concentrations” for “solvents”, “solutions” for “solutions thus obtained”, “lyophilizaiton.” for “lyophilization.”
After the lyophilization step, the lyophilized composition was reconstituted in 1 ml of distilled water for injection, left standing for 30 minutes, and solubility was judged when the foams generated on reconstituiton disappeared.
as §3

[3] = Addition effects of sodium deoxycholate and histidine in the absence of a sugar; settings: lyophilized, Polysorbate 20 0.5%, no sugar, 1%, 50° C.
Description: Addition effects of sodium deoxycholate and histidine in the absence of a sugar as the excipient was examined.
as §1, with “histidine or sodium deoxycholate” for “the saccharides were dissolved”, “a concentration of 1.0%.” for “such concentrations as listed in Table 6.”
as §2, with “step, the lyophilized composition thus obtained was stored at 50° C. After storage for 3 days or 2 weeks,” for “step,”, “disappeared. […]” for “disappeared.”

[4] = Additives for improving re-solubility during storage, mannitol as excipient; settings: lyophilized, Polysorbate 20 0.5%, 25° C.
Description: as §1, with “mannitol and a variety of additives” for “the saccharides were dissolved in”, “8.” for “6.”, “with” for “with a”
After the lyophilization step, the lyophilized composition was stored at 25° C. After storage for 1 month, the lyophilized composition was reconstituted in 1 ml of distilled water for injection, left standing for 30 minutes, and solubility was judged when the foams generated on reconstitution disappeared. The samples judged in solution were further stored, and judged again of their solubility after 4 months.
as §3

Re-solubility immediately after lyophilization ([1]; excipient Fructose 5%): + (not dissolved (or deposited)) | Re-solubility immediately after lyophilization ([1]; excipient Fructose 10%): + (not dissolved (or deposited)) | Re-solubility immediately after lyophilization ([1]; excipient Glucose 5%): − (dissolved) | Re-solubility immediately after lyophilization ([1]; excipient Glucose 10%): + (not dissolved (or deposited)) | Re-solubility immediately after lyophilization ([1]; excipient Lactose 5%): + (not dissolved (or deposited)) | Re-solubility immediately after lyophilization ([1]; excipient Lactose 10%): + (not dissolved (or deposited)) | Re-solubility immediately after lyophilization ([1]; excipient Maltose 1.5%): + (not dissolved (or deposited)) | Re-solubility immediately after lyophilization ([1]; excipient Maltose 3%): + (not dissolved (or deposited)) | Re-solubility immediately after lyophilization ([1]; excipient Mannitol 5%): + (not dissolved (or deposited)) | Re-solubility immediately after lyophilization ([1]; excipient Mannitol 10%): − (dissolved) | Re-solubility immediately after lyophilization ([1]; excipient Sorbitol 5%): + (not dissolved (or deposited)) | Re-solubility immediately after lyophilization ([1]; excipient Sorbitol 10%): + (not dissolved (or deposited)) | Re-solubility immediately after lyophilization ([1]; excipient Sucrose 4.8%): − (dissolved) | Re-solubility immediately after lyophilization ([1]; excipient Sucrose 9.6%): − (dissolved) | Re-solubility immediately after lyophilization ([1]; excipient Xylitol 4.3%): + (not dissolved (or deposited)) | Re-solubility immediately after lyophilization ([1]; excipient Xylitol 8.6%): + (not dissolved (or deposited)) | Re-solubility immediately after lyophilization (by naked eye) ([2]; Polysorbate 20 0.5%): + (not dissolved (or deposited)) | Re-solubility immediately after lyophilization (by naked eye) ([2]; Polysorbate 20 1.0%): + (not dissolved (or deposited)) | Re-solubility immediately after lyophilization (by naked eye) ([2]; Polysorbate 20 2.0%): + (not dissolved (or deposited)) | Re-solubility after storage (by naked eye) ([3]; Histidine, 2 weeks): + (not dissolved (or deposited)) | Re-solubility after storage (by naked eye) ([3]; Sodium deoxycholate, 3 days): + (not dissolved (or deposited)) | Re-solubility after storage (by naked eye) ([4]; Mannitol 10%, Sodium deoxycholate, 1%, 1 month): − (dissolved) | Re-solubility after storage (by naked eye) ([4]; Mannitol 10%, Sodium deoxycholate, 1%, 4 months): − (dissolved) | Re-solubility after storage (by naked eye) ([4]; Mannitol 10%, no additive, 1 month): − (dissolved) | Re-solubility after storage (by naked eye) ([4]; Mannitol 10%, no additive, 4 months): + (not dissolved (or deposited)) | Re-solubility after storage (by naked eye) ([4]; Mannitol 15%, Glycerol, 0.1%, 1 month): + (not dissolved (or deposited)) | Re-solubility after storage (by naked eye) ([4]; Mannitol 15%, Glycerol, 0.1%, 4 months): + (not dissolved (or deposited)) | Re-solubility after storage (by naked eye) ([4]; Mannitol 15%, Glycerol, 1%, 1 month): + (not dissolved (or deposited)) | Re-solubility after storage (by naked eye) ([4]; Mannitol 15%, Glycerol, 1%, 4 months): + (not dissolved (or deposited)) | Re-solubility after storage (by naked eye) ([4]; Mannitol 15%, PEG400, 1%, 1 month): + (not dissolved (or deposited)) | Re-solubility after storage (by naked eye) ([4]; Mannitol 15%, PEG400, 1%, 4 months): + (not dissolved (or deposited)) | Re-solubility after storage (by naked eye) ([4]; Mannitol 15%, Sodium deoxycholate, 1%, 1 month): + (not dissolved (or deposited)) | Re-solubility after storage (by naked eye) ([4]; Mannitol 15%, Sodium deoxycholate, 1%, 4 months): + (not dissolved (or deposited)) | Re-solubility after storage (by naked eye) ([4]; Mannitol 15%, no additive, 1 month): + (not dissolved (or deposited)) | Re-solubility after storage (by naked eye) ([4]; Mannitol 15%, no additive, 4 months): + (not dissolved (or deposited))
SMILES: CCCCCCCCCCCCCCCCCCCCCCCCCC(=O)N[C@@H](CO[C@H]1O[C@H](CO)[C@H](O)[C@H](O)[C@H]1O)[C@H](O)[C@H](O)CCCCCCCCCCCCCC [KRN7000, (2S,3S,4R)-1-(α-D-galactopyranosyloxy)-2-hexacosanoylamino-3,4-octadecanediol]
